No end group written: not given here.
How the values were obtained:
mtDNA (120 bp) = test: mtDNA-peptide binding (pull-down) assay; set-up: species or system mouse; details: biotinylated peptide, Streptavidin Dynabeads
From the text: C-terminal biotinylated peptides corresponding to amino acid residues from 1 to 26 of mouse VDAC1 (SEQ ID NO:1) and a mutant peptide (SEQ ID NO:72) with acetylation (N-terminus) and amidation (C-terminus) were synthesized and purified by Genscript (Piscataway, N.J., USA). Mitochondrial DNA was amplified using PCR with mtDNA specific primer of the D-loop region. The primers used were as follow (5′-3′): mtDNA 120 bp forward (SEQ ID NO:73), and reverse (SEQ ID NO:74). Purified mtDNA (120 bp) was incubated rotating end-over-end with peptides and Streptavidin Dynabeads (Invitrogen) for 18 h at 4° C. The peptides were captured by the Streptavidin Dynabeads, and unbound peptides and free mtDNA were removed by extensive washing with PBS. The samples were treated with proteinase K for 30 min at 60° C., and the mtDNA in the supernatant was purified with QIAquick Nucleotide Removal Kit (Qiagen). The purified mtDNA was quantified using real-time RT-PCR with the D-loop3 primers.

EndoG−/− MEFs [1] = test: ISG expression in EndoG−/− MEFs (real-time PCR / western blot); format: cell-based, mouse
Description: Total RNA was extracted using RNeasy Plus Mini Kit (Qiagen) according to the manufacturer's instructions. The first-strand cDNA was synthesized from 2 μg purified mRNA using Accupower RT PreMix (BioNeer). The reaction mixtures were incubated at 42° C. for 60 min and 94° C. for 5 min. Real-time RT-PCR was performed using the LightCycler 96 system (Roche Life Science) with SYBR Green master mix (Roche). The primers used were as follow (5′-3′): EndoG forward (SEQ ID NO:36), and reverse (SEQ ID NO:37); Cxcl10 forward (SEQ ID NO:38), and reverse (SEQ ID NO:39); GAPDH forward (SEQ ID NO:40), and reverse (SEQ ID NO:41); Ifi44 forward (SEQ ID NO:42), and reverse (SEQ ID NO:43); Ifit1 forward (SEQ ID NO:44), and reverse (SEQ ID NO:45); Ifit3 forward (SEQ ID NO:46), and reverse (SEQ ID NO:47); IFNα4 forward (SEQ ID NO:48), and reverse (SEQ ID NO:49); IFNβ forward (SEQ ID NO:50), and reverse (SEQ ID NO:51); Iigp1 forward (SEQ ID NO:52), and reverse (SEQ ID NO:53); ISG15 forward (SEQ ID NO:54), and reverse (SEQ ID NO:55); Oasl2 forward (SEQ ID NO:56), and reverse (SEQ ID NO:57); Rsad2 forward (SEQ ID NO:58), and reverse (SEQ ID NO:59); USP18 forward (SEQ ID NO:60), and reverse (SEQ ID NO:61); VDAC1 forward (SEQ ID NO:62), and reverse (SEQ ID NO:63). GAPDH was used as an internal standard of mRNA expression, and the ratio of the target gene expression to GAPDH expression was calculated using LightCycler 96 Instrument software (Roche). The quality of real-time RT-PCR results was evaluated based on the melting temperature (Tm) of a DNA fragment and melting curve analysis.

TFAM^KD MEFs = test: ISG expression in TFAM KD MEFs; format: cell-based, mouse
Description: The following mouse embryonic fibroblasts (MEFs) were used: VDAC1/3^−/− (MEFs) and Bak/Bax^−/− MEFs with the respective WT counterparts; WT and cGAS^−/− MEFs; WT and IRF3/IRF7^−/− MEFs; and WT and MICU1^−/− MEFs. All MEFs were grown in complete Dulbecco's modified Eagle's medium (DMEM, Corning) supplemented with 10% fetal bovine serum (FBS, Sigma-Aldrich) and 1% penicillin and streptomycin (antibiotics, Gibco) at 37° C. with 5% CO2. LMTK-1 cells were grown in complete RPMI 1640 medium (Gibco) supplemented with 10% FBS and antibiotics. The LMTK^−-derived cell line lacking mtDNA (ρ^o), LMEB-4, was grown in LMTK-1 growth medium supplemented with uridine (50 μg/ml, Sigma-Aldrich) and sodium pyruvate (1 mM, Gibco). WT (ρ^o) and EndoG^−/− (ρ^o) MEFs were generated by incubation with ethidium bromide (Invitrogen) in complete DMEM supplemented with 15% FBS, antibiotics, uridine (50 μg/ml), and pyruvate (1 mM) for 5 months. […]
Total RNA was extracted using RNeasy Plus Mini Kit (Qiagen) according to the manufacturer's instructions. […] GAPDH was used as an internal standard of mRNA expression, and the ratio of the target gene expression to GAPDH expression was calculated using LightCycler 96 Instrument software (Roche). The quality of real-time RT-PCR results was evaluated based on the melting temperature (Tm) of a DNA fragment and melting curve analysis. […]

VDAC1/3−/− MEFs = test: ISG expression in VDAC1/3−/− MEFs; format: cell-based, mouse; details: treatment with Ca2+ chelator BAPTA
Description: (§1) The following mouse embryonic fibroblasts (MEFs) were used: VDAC1/3^−/− (MEFs) and Bak/Bax^−/− MEFs with the respective WT counterparts; WT and cGAS^−/− MEFs; WT and IRF3/IRF7^−/− MEFs; and WT and MICU1^−/− MEFs. All MEFs were grown in complete Dulbecco's modified Eagle's medium (DMEM, Corning) supplemented with 10% fetal bovine serum (FBS, Sigma-Aldrich) and 1% penicillin and streptomycin (antibiotics, Gibco) at 37° C. with 5% CO2. LMTK-1 cells were grown in complete RPMI 1640 medium (Gibco) supplemented with 10% FBS and antibiotics. The LMTK^−-derived cell line lacking mtDNA (ρ^o), LMEB-4, was grown in LMTK-1 growth medium supplemented with uridine (50 μg/ml, Sigma-Aldrich) and sodium pyruvate (1 mM, Gibco). WT (ρ^o) and EndoG^−/− (ρ^o) MEFs were generated by incubation with ethidium bromide (Invitrogen) in complete DMEM supplemented with 15% FBS, antibiotics, uridine (50 μg/ml), and pyruvate (1 mM) for 5 months.
(§2) Total RNA was extracted using RNeasy Plus Mini Kit (Qiagen) according to the manufacturer's instructions. […] GAPDH was used as an internal standard of mRNA expression, and the ratio of the target gene expression to GAPDH expression was calculated using LightCycler 96 Instrument software (Roche). The quality of real-time RT-PCR results was evaluated based on the melting temperature (Tm) of a DNA fragment and melting curve analysis.

LMEB-4 (ρ0) cells = test: Ifi44 expression in LMEB-4 (ρ0) cells lacking mtDNA; format: cell-based; details: 100 μM DIDS
Description: as §1, §2

LMTK-1 (WT) cells = test: Ifi44 expression in LMTK-1 (WT) cells; format: cell-based; details: 100 μM DIDS
Description: as §1, §2

[2] = system: mitochondria from MICU1−/− MEFs; test: mtDNA release from isolated mitochondria of MICU1−/− MEFs; set-up: species or system mouse; details: buffer lacking Ca2+, with or without DIDS
Description: Therefore, it was postulated that VDAC may be increasing mtDNA release in living cells merely by increasing mitochondrial Ca^2+ and promoting PTP formation. To examine this possibility, mitochondria from MICU1^−/− MEFs, which already have elevated Ca^2+ and ROS levels (FIG. 6F), were isolated and incubated in a buffer lacking Ca^2+ either with or without DIDS.

MICU1−/− MEFs = test: ISG induction in MICU1−/− MEFs; format: cell-based, mouse; details: treatment with DIDS
Description: as §1, §2

143B cells = test: Quantification of fimtDNA (free intra-mtDNA fragments); format: cell-based
Description: For the quantification of fimtDNA release, 143B cells were resuspended in mitochondrial isolation buffer and subsequently homogenized 30 times with pestle B (small clearance). The homogenized samples were centrifuged at 1,000 g for 10 min at 4° C. The supernatant was transferred to a new tube and centrifuged at 1,000 g for 5 min at 4° C., and the mitochondrial pellet was collected after the centrifugation of the final supernatant at 11,500 g for 10 min at 4° C. Isolated mitochondria were resuspended in 50 μl CSK buffer containing 10 mM PIPES pH 6.8, 300 mM sucrose, 100 mM NaCl, 3 mM MgCl2, 1 mM EGTA, and 0.05% Triton X-100, for 5 min on ice, and the supernatant (fimtDNA) and CSK-pellet fractions were collected after centrifugation at 17,000 g for 30 min at 4° C. A 1:20 dilution of CSK-sup was used for real-time PCR with fimtDNA primers in each reaction. The primers used were as follow (5′-3′): hfimtNDA forward (SEQ ID NO:70), and reverse (SEQ ID NO:71). CSK-pellet was resuspended in 100 μl lysis buffer containing 20 mM EDTA and proteinase K and incubated at 56° C. overnight. The digested pellet was diluted with water (1:20 to 1:100) and heated at 95° C. for 20 min to inactivate proteinase K, and the CSK-pellet fraction was used for real-time PCR in each reaction. The fimtDNA in CSK-sup was normalized to the mtDNA in CSK-pellet.

EndoG−/− MEFs [3] = test: ROS levels in EndoG−/− MEFs; format: cell-based, mouse; details: Mito-TEMPO (10 μM), 3 days
Description: Cellular cGAMP levels were measured by LC/MS (Agilent Technologies) using 5% perchloric acid extracts of WT and EndoG^−/− MEFs. Intracellular ROS production in MEFs was measured using the oxidative stress indicator CM-H2DCFDA (Invitrogen) with flow cytometry (FACS). Mitochondrial ROS in MEFs was evaluated using the mitochondrial superoxide indicator MitoSOX (Invitrogen) with a confocal microscope (LSM880, Zeiss, and the fluorescence intensity was measured using Zen software (Zeiss). To quantify mitochondrial ROS in human PBMCs, the cells were obtained from heparinized blood using a Ficoll-Paque gradient. The cells were washed with PBS, resuspended in RPMI 1640 medium, and transferred to 96-well plates. Subsequently, the cells were stimulated with calcium ionophore A23187 (25 μM), VBIT-4 (5 μM), and MitoSOX (2 μM) (Life Technologies). After 1 h at 37° C., the fluorescence was measured at 510/595 nm using a microplate reader (Synergy HTX; BIOTEK). Cells without dye were used as the blank control.

[4] = treatment with Ca2+ chelator BAPTA
[5] = DIDS (100 μM), real-time PCR and western blot

In the case of “26 amino acid VDAC1 N-terminal peptide: C-terminal biotinylated peptide corresponding to amino acid residues 1 to 26 of mouse VDAC1 (MAVPPTYADLGKSARDVFTKGYGFGL-biotin)”, the “pull-down of mtDNA fragment” value (mtDNA (120 bp)) is reported as “pulled-down the mtDNA fragment in dose-dependent manner”.
With `O=C(O)CN(CC(=O)O)c1ccccc1OCCOc1ccccc1N(CC(=O)O)CC(=O)O` [BAPTA] the ISG expression (EndoG−/− MEFs [1]; [4]) was “decreased”, the ISG expression (TFAM^KD MEFs; [4]) was “decreased” and the ISG expression (VDAC1/3−/− MEFs) was “not”.
With `O=S(=O)(O)c1cc(N=C=S)ccc1C=Cc1ccc(N=C=S)cc1S(=O)(=O)O` [DIDS, 4,4′-Diisothiocyanatostilbene-2,2′-disulfonate] the “ISG (Ifi44) expression” value (LMEB-4 (ρ0) cells) was “not”, the “ISG (Ifi44) expression” value (LMTK-1 (WT) cells) was “inhibited” and the ISG expression (EndoG−/− MEFs [1]; [5]) was “inhibited”. For the same compound, the “mtDNA released during incubation” value [2] was “decreased in a concentration-dependent manner”, the ISG expression (TFAM^KD MEFs; [5]) was “inhibited” and the ISG induction (MICU1−/− MEFs) was “abrogated”.
`CO[C@H]1C[C@@H]2CC[C@@H](C)[C@@](O)(O2)C(=O)C(=O)N2CCCC[C@H]2C(=O)O[C@H]([C@H](C)C[C@@H]2CC[C@@H](OCCO)[C@H](OC)C2)CC(=O)[C@H](C)/C=C(\C)[C@@H](O)[C@@H](OC)C(=O)[C@H](C)C[C@H](C)/C=C/C=C/C=C/1C` [everolimus] was tested, and the fimtDNA (143B cells; 100 nM everolimus) was “decreased”.
For `CC1(C)CC(NC(=O)C[P+](c2ccccc2)(c2ccccc2)c2ccccc2)CC(C)(C)N1[O]` [mito-TEMPO], the fimtDNA (143B cells; 50 nM mito-TEMPO) was “decreased”, the ISG expression (EndoG−/− MEFs [1]; Mito-TEMPO (10 μM), 3 days) was “reduced” and the mROS (EndoG−/− MEFs [3]) was “reduced”.
In the case of “VDAC1 N-terminal mutant peptide: VDAC1 N-terminal peptide in which K12, R15, K20 were changed to Ala (MAVPPTYADLGASAADVFTAGYGFGL)”, the “pull-down of mtDNA fragment” value (mtDNA (120 bp)) is reported as “not”.

Source: patent US20220023381A1, “VDAC INHIBITORS FOR TREATING AUTOIMMUNE DISEASES” (NATIONAL INSTITUTE FOR BIOTECHNOLOGY IN THE NEGEV LTD., priority 2018, published 2022)
